Measurements taken from US20250346587A1, “NITROGEN-CONTAINING FIVE-MEMBERED HETEROCYCLIC DERIVATIVES AS CHECKPOINT KINASE 1 INHIBITOR AND USES THEREOF” (SPEROGENIX THERAPEUTICS LIMITED, priority 2022, published 2025).
In brackets after ≈: the same amount, converted by molar mass.

Experiments:
[1] = Microsomal stability assay, mouse liver microsome; format: in vitro ADME; conditions: liver microsomes, pH 7.4, 0.2 mg/mL, 1 μM compound, 37° C., read-out: Clint MLM
Method: (§1) Incubation mixture contained 0.2 mg/mL microsomes, 1 mmol NADPH, and test compound at 1 μM in 100 mmol potassium phosphate buffer at pH 7.4. The mixtures were incubated at 37° C. for 5, 15, and 30 minutes. Aliquots of the mixtures were taken at 0, 5, 15 and 30 minutes and quenched with chilled Acetonitrile:Methanol (50:50) containing internal standard. Following completion of incubation, samples were centrifuged at 4,000 rpm at 4° C. The supernatant was analyzed by LC-MS/MS and half-life, as well as intrinsic clearance (Clint), were calculated.

CHK-1 kinase = CHK-1 kinase (Homo sapiens (Human), UniProt O14757); assay: CHK-1 % inhibition kinase assay (TR-FRET); format: biochemical; conditions: ATP 15 μM; for inhibition at 0.03 µM / inhibition at 0.3 µM: CHK1 enzyme; for inhibition at 0.03 µM: compound 30 nM; for inhibition at 0.3 µM: compound 300 nM; for IC50: TR-FRET, read-out: CHK1 IC50
Sequence of CHK-1 kinase (O14757 whole entry): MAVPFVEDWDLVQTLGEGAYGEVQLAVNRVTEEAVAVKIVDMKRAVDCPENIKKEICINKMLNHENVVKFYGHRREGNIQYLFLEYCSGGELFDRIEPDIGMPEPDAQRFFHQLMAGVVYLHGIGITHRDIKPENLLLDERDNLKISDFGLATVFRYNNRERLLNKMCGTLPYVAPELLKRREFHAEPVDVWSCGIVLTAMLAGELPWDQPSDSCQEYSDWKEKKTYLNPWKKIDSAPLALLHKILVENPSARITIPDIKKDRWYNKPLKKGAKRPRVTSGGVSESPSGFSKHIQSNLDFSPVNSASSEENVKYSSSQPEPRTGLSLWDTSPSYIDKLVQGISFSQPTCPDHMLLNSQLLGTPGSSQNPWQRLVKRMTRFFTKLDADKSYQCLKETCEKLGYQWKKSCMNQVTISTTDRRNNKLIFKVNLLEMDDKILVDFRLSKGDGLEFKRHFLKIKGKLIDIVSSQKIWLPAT
Method: Inhibition of CHK-1 kinase or percent inhibition at defined concentrations was determined by TR-FRET assay. Kinase reactions were performed in a 20 μL volume in low-volume 384-well plates (Cat #Corning 4511). The concentration of substrate Fluorescein-CREBtide was maintained at 0.2 μM in the assay, and the kinase reaction buffer consisted of 50 mM HEPES pH 7.5, 0.01% BRIJ-35, 10 mM MgCl2, 1 mM EGTA. Serially diluted compounds (3-fold) in DMSO (0.5% in final reaction) were incubated with cocktail of CHK-1 kinase (6 nM; Cat #PR3959B, ThermoFisher), Fluorescein-CREBtide (0.2 μM; Cat #PV3508, ThermoFisher), ATP (15 μM; Cat #A1852, Sigma), and kinase reaction buffer. After 1 hour kinase reactions at room temperature, 10 μL of Detection mix (8 nM LanthaScreen® Tb-CREB [pSer133] antibody, Cat #PV3542, ThermoFisher with 20 mM EDTA in TR-FRET Buffer, Cat #PV3574, ThermoFisher) was added, and the plate was read with a plate reader (Synergy™ NEO; Biotek) for TR-FRET.
The resulting TR-FRET emission ratio was used to calculate the percent inhibition by normalizing to the control using the following formula: […]

[2] = Kinetic solubility assay (nephelometry); conditions: PBS, 37 °C, pH 7.4, aqueous buffer, kinetic from dmso stock
Method: Test articles were serially diluted in DMSO from concentration range of 10 mM to 0.078 mM in 96 well v-bottom dilution plate (#3363, Corning). 1 μL of test article from each well was transferred to 96 well flat bottom clear plates (#655101, Greiner) containing 99 μL of PBS at pH-7.4, which makes the test drug final concentration range from 100 μM to 0.78 μM. Samples were incubated for 1 hour at 37° C. followed by measurement of light scattering at 625 nm with a laser based micro plate Nephelometer (Nephlostar Plus, BMG Labtech). Solubility concentration (μM) was then calculated by segmental regression with Neplometer as Readout.

[3] = Microsomal stability assay, human liver microsome; format: in vitro ADME; conditions: liver microsomes, pH 7.4, 0.2 mg/mL, 1 μM compound, 37° C., read-out: Clint HLM
Method: as §1

[4] = Microsomal stability assay, rat liver microsome; format: in vitro ADME; conditions: liver microsomes, pH 7.4, 0.2 mg/mL, 1 μM compound, 37° C., read-out: Clint RLM
Method: as §1

Row | microsomal CLint at 1 μM [1] [µL/min/mg] | inhibition at 0.03 µM (CHK-1 kinase) [%] | inhibition at 0.3 µM (CHK-1 kinase) [%] | solubility kinetic at 1 h [2] [µM] | microsomal CLint at 1 μM [3] [µL/min/mg] | microsomal CLint at 1 μM [4] [µL/min/mg] | SMILES | IC50 (CHK-1 kinase) [nM]
1 | 114 | 36 | 82 | 39.2 (≈ 12.6 µg/mL) | 75 | 118 | N#Cc1cnc(Nc2cc(-c3ccccc3OCCN)on2)cn1 [Compound 1.7, 5-(5-(2-(2-aminoethoxy)phenyl)isoxazol-3-ylamino) pyrazine-2-carbonitrile] | –
2 | 243 | 44 | 65 | 30.5 (≈ 10.6 µg/mL) | 80 | 49 | CN1CC(Oc2ccccc2-c2cc(Nc3cnc(C#N)cn3)no2)C1 [Compound 1.10, 5-(5-(2-(1-methylazetidin-3-yloxy)phenyl)isoxazol-3-ylamino) pyrazine-2-carbonitrile] | –
3 | 382 | 12 | 36 | 14 (≈ 4.11 µg/mL) | 140 | 79 | COc1ccccc1-c1cc(Nc2cnc(C#N)cn2)no1 [Compound 1.11, 5-(5-(2-methoxyphenyl)isoxazol-3-ylamino) pyrazine-2-carbonitrile] | –
4 | 473 | 21 | 30 | 38.4 (≈ 16.1 µg/mL) | 478 | 266 | CC(C)CC(C)N1CC(Oc2ccccc2-c2cc(Nc3cnc(C#N)cn3)no2)C1 (stereo not drawn) [Compound 1.12, 5-(5-(2-(1-(4-methylpentan-2-yl)azetidin-3-yloxy)phenyl)isoxazol-3-ylamino) pyrazine-2-carbonitrile] | –
5 | 221 | 15 | 32 | 11.9 (≈ 4.48 µg/mL) | 86 | 84 | CC(C)N1CC(Oc2ccccc2-c2cc(Nc3cnc(C#N)cn3)no2)C1 [Compound 1.13, 5-(5-(2-(1-isopropylazetidin-3-yloxy)phenyl)isoxazol-3-ylamino) pyrazine-2-carbonitrile] | –
6 | 56 | 37 | 60 | 39.6 (≈ 13.8 µg/mL) | 34 | 23 | N#Cc1cnc(Nc2cc(-c3ccccc3OC3CCNC3)on2)cn1 (stereo not drawn) [Compound 1.14, 5-(5-(2-(pyrrolidin-3-yloxy)phenyl)isoxazol-3-ylamino) pyrazine-2-carbonitrile] | –
7 | 25 | 39 | 79 | 100 (≈ 37.6 µg/mL) | 12 | 33 | N#Cc1cnc(Nc2cc(-c3ccccc3O[C@H]3CC[C@@H](N)CC3)on2)cn1 [Compound 1.15, 5-(5-(2-((1s,4s)-4-aminocyclohexyloxy)phenyl)isoxazol-3-ylamino) pyrazine-2-carbonitrile] | –
8 | 141 | 9 | 75 | 38.2 (≈ 14.9 µg/mL) | 117 | 138 | CN1CCCC(COc2ccccc2-c2cc(Nc3cnc(C#N)cn3)no2)C1 (stereo not drawn) [Compound 1.16, 5-(5-(2-((1-methylpiperidin-3-yl)methoxy)phenyl)isoxazol-3-ylamino) pyrazine-2-carbonitrile] | –
9 | 50 | 69 | 95 | 48 (≈ 16.7 µg/mL) | 26 | 43 | N#Cc1cnc(Nc2cc(-c3ccccc3OCC3CNC3)on2)cn1 [Compound 1.17, 5-(5-(2-(azetidin-3-ylmethoxy)phenyl)isoxazol-3-ylamino) pyrazine-2-carbonitrile] | –
10 | 297 | 4 | 28 | 48 (≈ 18.7 µg/mL) | 145 | 130 | CCC(C)N1CC(Oc2ccccc2-c2cc(Nc3cnc(C#N)cn3)no2)C1 (stereo not drawn) [Compound 1.18, 5-(5-(2-(1-sec-butyl-azetidin-3-yloxy)phen-yl)isoxazol-3-ylamino)-pyrazine-2-carbonitrile] | –
11 | 52 | 82 | 99 | 46.6 (≈ 16.9 µg/mL) | 37 | 50 | N#Cc1cnc(Nc2cc(-c3ccccc3OCC3CCNC3)on2)cn1 (stereo not drawn) [Compound 1.23, 5-(5-(2-(pyrrolidin-3-ylmethoxy)phenyl)isoxazol-3-ylamino) pyrazine-2-carbonitrile] | –

Row | SMILES | microsomal CLint at 1 μM [1] [µL/min/mg] | inhibition at 0.03 µM (CHK-1 kinase) [%] | inhibition at 0.3 µM (CHK-1 kinase) [%] | solubility kinetic at 1 h [2] [µM] | microsomal CLint at 1 μM [3] [µL/min/mg] | microsomal CLint at 1 μM [4] [µL/min/mg] | IC50 (CHK-1 kinase) [nM]
12 | N#Cc1cnc(Nc2cc(-c3ccccc3OC3CNC3)on2)cn1 [Compound 1.4, 5-(5-(2-(azetidin-3-yloxy)phenyl)isoxazol-3-ylamino) pyrazine-2-carbonitrile] | 66 | 7 | 54 | 100 (≈ 33.4 µg/mL) | 52 | 27 | 86.4
13 | N#Cc1cnc(Nc2cc(-c3ccccc3OCCCN)on2)cn1 [Compound 1.5, 5-(5-(2-(3-aminopropoxy)phenyl)isoxazol-3-ylamino) pyrazine-2-carbonitrile] | 77 | 63 | 89 | 41.8 (≈ 14.1 µg/mL) | 78 | 70 | 7.82
14 | N#Cc1cnc(Nc2cc(-c3ccccc3OCCCCN)on2)cn1 [Compound 1.6, 5-(5-(2-(4-aminobutoxy)phenyl)isoxazol-3-ylamino) pyrazine-2-carbonitrile] | 63 | 71 | 91 | 42.8 (≈ 15 µg/mL) | 63 | 118 | 12.3
15 | CN1CCOC(COc2ccccc2-c2cc(Nc3cnc(C#N)cn3)no2)C1 (stereo not drawn) [Compound 1.8, 5-(5-(2-((4-methylmorpholin-2-yl)methoxy)phenyl)isoxazol-3-ylamino) pyrazine-2-carbonitrile] | 481 | 51 | 64 | 32 (≈ 12.6 µg/mL) | 202 | 104 | 76.6
16 | N#Cc1cnc(Nc2cc(-c3ccccc3OC3CC(N)C3)on2)cn1 (stereo not drawn) [Compound 1.20, 5-(5-(2-(3-aminocyclobutoxy)phenyl)isoxazol-3-ylamino) pyrazine-2-carbonitrile] | 86 | 60.2 | 91.9 | 29.4 (≈ 10.2 µg/mL) | 47 | 46 | –
17 | N#Cc1cnc(Nc2cc(-c3ccccc3OC3CC4(CNC4)C3)on2)cn1 [Compound 1.21, 5-(5-(2-(2-azaspiro[3.3]heptan-6-yloxy)phenyl)isoxazol-3-ylamino) pyrazine-2-carbonitrile] | 18 | 78.7 | 95.5 | 18.8 (≈ 7.04 µg/mL) | 20 | 37 | –
18 | N#Cc1cnc(Nc2cc(-c3cc4ccccc4cc3OCC3CCNCC3)[nH]n2)cn1 [Compound 2.1, 5-(5-(3-(piperidin-4-ylmethoxy)naphthalen-2-yl)-1H-pyrazol-3-ylamino) pyrazine-2-carbonitrile] | 101 | 27 | 91 | 34.7 (≈ 14.8 µg/mL) | 25 | 36 | 2.46
19 | N#Cc1cnc(Nc2cc(-c3cc4ccccc4cc3OCC3CNC3)[nH]n2)cn1 [Compound 2.2, 5-(5-(3-(azetidine-3-ylmethoxy)naphthalen-2-yl)-1H-pyrazol-3-ylamino) pyrazine-2-carbonitrile] | 153 | 80 | 96 | 41.8 (≈ 16.6 µg/mL) | 21 | 45 | 4.14
